Assays:
[1] = cited from earlier work
[2] = Chlorinated DNAPL dissolution in control sample without cosolvent-surfactant; format: physicochemical; details: in presence of DNAPL, no Citrus Burst-3, 50 g/L NaCl, 25° C., 48 hours
Text: A chlorinated solvent DNAPL was obtained from a site consisting of chlorinated solvents and chlorinated semi-volatile compounds. Composition of the chlorinated solvent DNAPL is presented based on determinations using USEPA Methods 8260 and 8270. An aliquot of the DNAPL was mixed with a suitable quantity of deionized water to determine the equilibrium solubility of the individual compounds in the presence of the DNAPL.
The data collected under the experimentation conditions presented in Table 2 were obtained at 25° C. with 60 rpm shaker table mixing for 48 hours. After the shaker was shut off, the samples sat quietly for 5 minutes before the supernatant was analyzed. DNAPLmax represents the maximum concentration of DNAPL that may dissolve, given the mass of DNAPL and the volume of water.
Carbon tetrachloride and tetrachloroethylene comprised more than 87 percent of the DNAPL. Being a saturated compound, carbon tetrachloride is generally a pervasive and difficult to degrade compound once introduced to the subsurface. […] After 48 hours of slowly mixing the DNAPL and water mixtures, the samples were allowed to sit for 5 minutes and then samples of the solubilized fraction of the mixture were collected and analyzed for VOCs using USEPA Method 8260. Samples from experiment number 1, 3, 5, 7 and 8 (control) were analyzed. […]

Clc1c(Cl)c(Cl)c2c(Cl)c(Cl)c(Cl)c(Cl)c2c1Cl [Octachloronaphthalene (OCN), Octachloronaphthalene]
Pure Compound Aqueous Solubility [1]: insoluble

ClC(Cl)(Cl)Cl [Carbon Tetrachloride (CTC), Carbon Tetrachloride]
Observed Solubility in Control Sample [2]: 100 µg/mL | Pure Compound Aqueous Solubility [1]: 129 µg/mL

From patent publication US7976241B2, “Soil remediation method and composition” (priority 2006, dated 2011)
